Values quoted from earlier work, collected in patent US8960128B2, “Topical anesthetic composition” (Animal Ethics Pty Ltd, priority 2005, dated 2015).

Tests used:
[1] = typically up to about; depending on the method of administration
[2] = sheep, topically applied

| SMILES | duration of anesthesia [1] [h] | total dose that should not be exceeded [2] [mg/kg] |
| --- | --- | --- |
| CCCCN1CCCCC1C(=O)Nc1c(C)cccc1C (centres unmarked) [bupivacaine] | 6 to 12 | – |
| CCN(CC)CC(=O)Nc1c(C)cccc1C [lignocaine] | – | ≤ 50 |
